Assay results taken from patent US8080644B2, “Oligonucleotide analogues” (Exiqon A/S, priority 1997, dated 2011).
V = bicyclic LNA-type nucleotide of structure V in the publication's (LNA marked in bold); d = 2'-deoxy (DNA)

Legend:
5′-d(AAAATAAAA)-3′ = experiment: Tm of duplex (spectrophotometric melting curves); format: binding; settings: vs 5′-d(AAAATAAAA)-3′ (mismatch); 10 mM Na2HPO4 pH 7.0, 100 mM NaCl, 0.1 mM EDTA
Description: (§1) Thermostability of oligonucleotides containing monomers of formula V, X, Y and Z^T, Z^U, Z^G, Z^C, Z^A, Z^MeC. The thermostability of the LNA modified oligonucleotides were determined spectrophotometrically using a spectrophotometer equipped with a thermoregulated Peltier element. Hybridisation mixtures of 1 ml were prepared containing either of 3 different buffers (10 mM Na2HPO4, pH 7.0, 100 mM NaCl, 0.1 mM EDTA; 10 mM Na2HPO4 pH 7.0, 0.1 mM EDTA; 3M tetramethylammoniumchlorid (TMAC), 10 mM Na2HPO4, pH 7.0, 0.1 mM EDTA) and equimolar (1 μM or 1.5 μM) amounts of the different LNA modified oligonucleotides and their complementary or mismatched DNA or RNA oligonucleotides. Identical hybridisation mixtures using the unmodified oligonucleotides were prepared as references. The Tm's were obtained as the first derivative of the melting curves. FIG. 2 illustrates the monomeric LNAs used. The nomenclature V, X, Y and Z^T, Z^U, Z^G, Z^C, Z^A, Z^MeC refer to structures V, X, Y and Z of FIG. 2. In the tables, the nucleobases of the LNA monomers are indicated. Furthermore, for the thio and amino variants of the LNA structure Z of the last two tables, the nomenclature used is, e.g., Z^TS and Z^TNH, respectively.

5′-(AAAAAAAAAAAAAA)-3′ = experiment: Tm of duplex (spectrophotometric melting curves); format: binding; settings: vs RNA 5′-(AAAAAAAAAAAAAA)-3′; 10 mM Na2HPO4 pH 7.0, 100 mM NaCl, 0.1 mM EDTA
Description: as §1

5′-d(AAAAGAAAA)-3′ = experiment: Tm of duplex (spectrophotometric melting curves); format: binding; settings: vs 5′-d(AAAAGAAAA)-3′ (mismatch); 10 mM Na2HPO4 pH 7.0, 100 mM NaCl, 0.1 mM EDTA
Description: as §1

5′-d(AAAAAAAAAAAAAA)-3′ = experiment: Tm of duplex (spectrophotometric melting curves); format: binding; settings: vs 5′-d(AAAAAAAAAAAAAA)-3′; 10 mM Na2HPO4 pH 7.0, 100 mM NaCl, 0.1 mM EDTA
Description: as §1

5′-d(AAAACAAAA)-3′ = experiment: Tm of duplex (spectrophotometric melting curves); format: binding; settings: vs 5′-d(AAAACAAAA)-3′ (mismatch); 10 mM Na2HPO4 pH 7.0, 100 mM NaCl, 0.1 mM EDTA
Description: as §1

5′-(AAAAAAGAAAAAAA)-3′ = experiment: Tm of duplex (spectrophotometric melting curves); format: binding; settings: vs RNA 5′-(AAAAAAGAAAAAAA)-3′ (mismatch); 10 mM Na2HPO4 pH 7.0, 100 mM NaCl, 0.1 mM EDTA
Description: as §1

δ opioid receptor = experiment: Warm water tail flick test, [D-Ala2]deltorphin-induced antinociception; format: in vivo, rats; settings: 60 μg, i.th, saline-treated controls, 52° C. water
Description: Blockade by Antisense Locked Nucleic Acids (LNA) of [D-Ala2]Deltorphin-Induced Antinociception in the Warm Water Tail Flick Test in Conscious Rats. Male Sprague-Dawley rats (300 g) were implanted with an intrathecal (i.th). polyethylene catheter and allowed to recover for at least 5 days before start of injections (including controls). The antisense LNA compounds (12.5 and 2.5 μg per injection) were administered in a 5 μl volume twice-daily (08.00 and 17.00 h) for 3 days. No signs of non-specific effects or toxicity could be detected, as shown by observations of locomotor behavior and measurements of body weight. The day after the last injection the rats were injected with [D-Ala2]deltorphin (60 μg, i.th) and tested in the warm water (52° C.) tail flick test for δ opioid receptor-mediated antinociception. Data are presented in FIG. 14 as medians based on 6-8 animals per group (data converted to percent maximum possible response, % MPE). Statistical analyses were performed by means of Kruskal-Wallis 1-way ANOVA by ranks, followed by comparisons of treatments versus control.

[1] = tested on: Arabidopsis mRNA, AMV Reverse Transcriptase; experiment: First strand cDNA synthesis priming; format: biochemical; settings: 42° C., 2 hours, vs anchored poly dT control
Description: First Strand cDNA Synthesis Using Poly dT Primers Containing LNA T monomers. Reactions were set up in order to test the ability of poly dT primers containing LNA T residues to prime 1st strand cDNA synthesis. The following poly dT primers were tested (LNA monomers are in bold): […]
Reactions were set up as follows for each of the primers above: […]
This mix was then heated to 75° C. for 3 min and then allowed to cool at room temperature for at least 10 min.
The following was then added to each of the reactions:
The reactions were incubated at 42° C. for 2 hours. The reactions were then heated at 95° C. for 3 min before loading onto a 6% polyacrylamide 7M urea gel. The gel was fixed in 10% acetic acid/10% methanol before transferring to 3 MM paper and drying. The dried gel was exposed to Kodak Biomax autoradiography film overnight.

5′-d(TTTTTTTTTT)-3′ (SEQ ID NO: 95): almost fully modified LNA oligomer containing exclusively Z^T (52-56) (LNA Z^T monomers)
Tm (° C.) Na2HPO4/NaCl/EDTA (5′-d(AAAATAAAA)-3′): 65 °C
Tm (° C.) Na2HPO4/NaCl/EDTA (5′-(AAAAAAAAAAAAAA)-3′): 70 °C
Tm (° C.) Na2HPO4/NaCl/EDTA (5′-d(AAAAGAAAA)-3′): 55 °C
Tm (° C.) Na2HPO4/NaCl/EDTA (5′-d(AAAAAAAAAAAAAA)-3′): 80 °C
Tm (° C.) Na2HPO4/NaCl/EDTA (5′-d(AAAACAAAA)-3′): 63 °C

5′-d(TTTTTTTTTTTTTT)-3′ (SEQ ID NO: 113): fully modified poly-T oligonucleotide of structure V (sugars from the 5' end V13 d1, backbone not given here)
Tm (° C.) Na2HPO4/NaCl/EDTA (5′-(AAAAAAGAAAAAAA)-3′): 37 °C
Tm (° C.) Na2HPO4/NaCl/EDTA (5′-(AAAAAAAAAAAAAA)-3′): 42 °C
Tm (° C.) Na2HPO4/NaCl/EDTA (5′-d(AAAAAAAAAAAAAA)-3′): <10 °C

CC(C)[C@H](NC(=O)[C@H](CCC(=O)O)NC(=O)[C@H](Cc1ccccc1)NC(=O)[C@@H](C)NC(=O)[C@@H](N)Cc1ccc(O)cc1)C(=O)N[C@H](C(=O)NCC(=O)O)C(C)C [deltorphin, [D-Ala2]deltorphin]
antinociceptive effect (δ opioid receptor): robust antinociceptive effect

RTZ 5: poly dT primer 5′-TTT TTT TTT T-3′ (SEQ ID NO: 69) containing LNA T monomers (TTTTTTTTTT; LNA T monomers)
priming of 1st strand cDNA synthesis [1]: yield was significantly lower than that produced with the control oligo primer
